± gives the expanded uncertainty stated by the source.
What was measured:
[1] = 101.33 kPa, Liquid, Vibrating tube method
[2] = activity coefficient (dimensionless); of the first substance listed, at infinite dilution; xn = mol fraction of the nth substance listed; details: 101.33 kPa, Liquid, Chromatography, x1 = 0

SMILES	activity coefficient ([2]; 318.15 K)	activity coefficient ([2]; 328.15 K)	activity coefficient ([2]; 338.15 K)	activity coefficient ([2]; 348.15 K)	activity coefficient ([2]; 358.15 K)	activity coefficient ([2]; 368.15 K)	also measured
C[n+]1ccn(CCCO)c1.N#CN=C=[N-] [1-(3-hydroxypropyl)-3-methylimidazolium dicyanamide]							mass density ([1]; 298.15 K): 1171 ± 11 kg/m3; mass density ([1]; 303.15 K): 1167.8 ± 11 kg/m3; mass density ([1]; 308.15 K): 1164.6 ± 11 kg/m3; mass density ([1]; 313.15 K): 1161.4 ± 11 kg/m3; mass density ([1]; 318.15 K): 1158.2 ± 11 kg/m3; mass density ([1]; 323.15 K): 1155.1 ± 11 kg/m3; mass density ([1]; 328.15 K): 1152 ± 11 kg/m3; mass density ([1]; 333.15 K): 1148.9 ± 10 kg/m3; mass density ([1]; 338.15 K): 1145.8 ± 10 kg/m3; mass density ([1]; 343.15 K): 1142.7 ± 10 kg/m3; mass density ([1]; 348.15 K): 1139.6 ± 10 kg/m3; mass density ([1]; 353.15 K): 1136.6 ± 10 kg/m3; mass density ([1]; 358.15 K): 1133.6 ± 10 kg/m3; mass density ([1]; 363.15 K): 1130.6 ± 10 kg/m3; mass density ([1]; 368.15 K): 1127.6 ± 10 kg/m3
C[N+]1(CCCO)CCOCC1.N#C[N-]C#N [4-(3-hydroxypropyl)-4-methylmorpholinium dicyanamide]							mass density ([1]; 298.15 K): 1175.4 ± 3.7 kg/m3; mass density ([1]; 303.15 K): 1172.4 ± 3.7 kg/m3; mass density ([1]; 308.15 K): 1169.4 ± 3.7 kg/m3; mass density ([1]; 313.15 K): 1166.5 ± 3.7 kg/m3; mass density ([1]; 318.15 K): 1163.6 ± 3.7 kg/m3; mass density ([1]; 323.15 K): 1160.7 ± 3.7 kg/m3; mass density ([1]; 328.15 K): 1157.9 ± 3.7 kg/m3; mass density ([1]; 333.15 K): 1155 ± 3.7 kg/m3; mass density ([1]; 338.15 K): 1152.1 ± 3.6 kg/m3; mass density ([1]; 343.15 K): 1149.3 ± 3.6 kg/m3; mass density ([1]; 348.15 K): 1146.5 ± 3.6 kg/m3; mass density ([1]; 353.15 K): 1143.7 ± 3.6 kg/m3; mass density ([1]; 358.15 K): 1141 ± 3.6 kg/m3; mass density ([1]; 363.15 K): 1138.2 ± 3.6 kg/m3; mass density ([1]; 368.15 K): 1135.5 ± 3.6 kg/m3
Cc1ccccc1 [toluene] + C[N+]1(CCCO)CCOCC1.N#C[N-]C#N	13 ± 0.9	13.1 ± 0.9	13.3 ± 0.9	13.4 ± 0.9	13.6 ± 0.9	13.7 ± 0.9	
Cc1ccccc1 [toluene] + C[n+]1ccn(CCCO)c1.N#CN=C=[N-]	7.75 ± 0.53	8 ± 0.55	8.27 ± 0.56	8.51 ± 0.58	8.84 ± 0.6	9.09 ± 0.62	
C=COC(C)=O [vinyl acetate] + C[N+]1(CCCO)CCOCC1.N#C[N-]C#N	6.62 ± 0.45	6.72 ± 0.46	6.81 ± 0.46	6.89 ± 0.47	6.99 ± 0.48	7.08 ± 0.48	
C=COC(C)=O [vinyl acetate] + C[n+]1ccn(CCCO)c1.N#CN=C=[N-]	4.73 ± 0.32	4.92 ± 0.34	5.12 ± 0.35	5.3 ± 0.36	5.49 ± 0.37	5.68 ± 0.39	
O [water] + C[N+]1(CCCO)CCOCC1.N#C[N-]C#N	0.364 ± 0.033	0.373 ± 0.033	0.384 ± 0.033	0.395 ± 0.034	0.404 ± 0.034	0.414 ± 0.034	
O [water] + C[n+]1ccn(CCCO)c1.N#CN=C=[N-]	0.35 ± 0.03	0.36 ± 0.03	0.37 ± 0.03	0.38 ± 0.03	0.4 ± 0.03	0.41 ± 0.03	

— the NIST ThermoML archive (doi:10.1016/j.jct.2017.11.017)
